Experimental data as given in article PMC10819979, “Antitumor Mechanism and Therapeutic Potential of Cordycepin Derivatives” (Molecules, 2024).

Assays:
MCF7 cells [1] = assay: MTT cell proliferation assay, MCF7; format: cell-based; settings: Homo sapiens, 48 h incubation, x̄ ± s, n = 6
Method: (§1) MCF7, HepG2, SGC-7901 and MCF-10A were purchased from the National Infrastructure of Cell Line Resources in the Chinese Academy of Sciences (Shanghai Institute of Biochemistry and Cell Biology, Shanghai, China). Cells were maintained using RPMI-1640 medium with 10% fetal bovine serum. The cells were maintained at 37 °C in a 5% CO2-containing incubator for all treatments. Logarithmic growth phase cells were used in all experiments.
(§2) The effect of compounds on the proliferation of cancer cells was determined with an MTT assay. Cells monolayer in exponential growth were seeded in 96-well plates at 5 × 10^3 cells/well. After cultured at 37 °C for 24 h, the culture medium was removed, then compounds (3a–4c) (1.25, 2.5, 5, 10, 20, 40, 80 μM) and HCPT (4, 8, 16 μM) were added. After 48 h incubation, 100 µL of MTT was added to each well and then cultured for 4 h in a 37 °C incubator. After that, the medium was aspirated, 150 µL of DMSO was then added to each well, and the 96-well plates were placed on an orbital shaker for 12 min until the formazan dissolved completely. The absorbance was measured at a test wavelength of 490 nm with a microplate reader, the optical density (OD) values were tested and the inhibitory rate and half inhibitory concentration (IC50) were calculated for each administration group.

HepG2 cells = assay: MTT cell proliferation assay, HepG2; format: cell-based; settings: Homo sapiens, 48 h incubation, x̄ ± s, n = 6
Method: as §1, §2

SGC-7901 cells = assay: MTT cell proliferation assay, SGC-7901; format: cell-based; settings: Homo sapiens, 48 h incubation, x̄ ± s, n = 6
Method: as §1, §2

MCF-10A cells = assay: In vitro cytotoxicity against normal breast cell line; format: cell-based
Method: as §1, §2

MCF7 cells [2] = assay: Apoptosis of MCF7 cells by flow cytometry; format: cell-based; settings: MCF7, 56 μM, 48 h, n = 3
Method: Cells were cultured in the medium for 24 h and treated with compounds in different concentrations and HCPT incubated for 48 h. The cells were centrifuged at 1000 rpm for 10 min and washed with PBS. Subsequently, the cells were […] stained with annexin V-FITC (10 μL) and propidium iodide (PI; 10 μL). The proportion of apoptotic cells was then measured by flow cytometry.

MCF7 cells [3] = assay: Cell cycle detection by flow cytometry (PI); format: cell-based; settings: 14, 28 and 56 μM, dose-dependent
Method: After the treatments, the harvested cells were incubated at 70% in ice-ethanol overnight. Subsequently, they were washed twice using PBS and incubated with propidium iodide (PI) and RNase A. Finally, the proportions of cells in different cell cycle phases were determined by flow cytometry.

MCF7 cells [4] = assay: Mitochondrial membrane potential assay (rhodamine 123, flow cytometry); format: cell-based; settings: MCF7, dose–effect relationship
Method: MCF7 cells were cultured in 6-well plates, after treatment with compounds in different concentrations and positive control group (HCPT), cells were harvested, washed with PBS, and then stained with rhodamine 123 (100 µg) for 30 min at 37 °C. The cells were collected by pipetting, washed twice with PBS and analyzed by flow cytometry (BD Biosciences, San Jose, CA, USA).

Bcl-2 = assay: Western Blot, Bcl-2 expression in MCF7 cells; format: cell-based; settings: MCF7, 14, 28, 56 μM, 48 h
Method: (§3) Cells were cultured in the medium for 24 h and treated with compounds in different concentrations and HCPT for 48 h. After lysis buffer (RIPA: PMSF = 100:1) was used to lyse cells. The lysate was further sonicated and centrifuged at 12,000 rpm for 15 min, then the supernatant obtained was collected and the denatured protein mixture was subjected to SDS gel electrophoresis and transferred to nitrocellulose membranes, and blocked with containing 5% nonfat milk. Then, the membranes were incubated with the primary antibodies (1:1000, overnight 4 °C) and secondary antibodies (1:5000, 1 h). Then, ECL Solution was used to detect the antigen–antibody complexes. The data were analyzed by NIH Image J 1.53a software.

Caspase-9 = assay: Western Blot, Caspase-9 expression in MCF7 cells; format: cell-based; settings: MCF7, 14, 28, 56 μM, 48 h
Method: as §3

Caspase-3 = assay: Western Blot, Caspase-3 expression in MCF7 cells; format: cell-based; settings: MCF7, 14, 28, 56 μM, 48 h
Method: as §3

Bax = assay: Western Blot, Bax expression in MCF7 cells; format: cell-based; settings: MCF7, 14, 28, 56 μM, 48 h
Method: as §3

p53 = assay: Western Blot, p53 expression in MCF7 cells; format: cell-based; settings: MCF7, 14, 28, 56 μM, 48 h
Method: as §3

MCF7 = system: MCF7; design: method as in PMID 32163051, PMID 22821173; settings: breast cancer cell viability; cited from earlier work
MDA-MB-453 cells = system: MDA-MB-453 cells; design: method as in PMID 32163051, PMID 22821173; settings: breast cancer cell viability; cited from earlier work

SMILES | IC50 (MCF7 cells [1]) [µM] | IC50 (HepG2 cells) [µM] | IC50 (SGC-7901 cells) [µM] | also measured
CC[C@@]1(O)C(=O)OCc2c1cc1n(c2=O)Cc2cc3cc(O)ccc3nc2-1 [10-hydroxycamptothecin (HCPT), 10-hydroxycamptothecin, reference compound] | 7.56 ± 0.05 | 6.56 ± 0.45 | 7.96 ± 0.65 | 
CC(C)(C)[Si](C)(C)OC[C@@H]1C[C@@H](O)[C@H](n2cnc3c(NC(=O)c4cccs4)ncnc32)O1 [Compound 3a, 5′-O-(Tert-butyldimethylsilyl)-6-thiophenecarboxamide-3′-deoxya-denosine] | 114 ± 2.03 | 134 ± 5.12 | 102 ± 1.08 | 
CC(C)(C)[Si](C)(C)OC[C@@H]1C[C@@H](O)[C@H](n2cnc3c(NC(=O)c4ccco4)ncnc32)O1 [Compound 3b, 5′-O-(Tert-butyldimethylsilyl)-6-furancarboxamide-3′-deoxyadenosine] | 98.03 ± 0.04 | 60.4 ± 1.15 | 41.7 ± 2.36 | 
CC(C)(C)[Si](C)(C)OC[C@@H]1C[C@@H](O)[C@H](n2cnc3c(NC(=O)c4ccc(Cl)nc4)ncnc32)O1 [Compound 3c, 5′-O-(Tert-butyldimethylsilyl)-6-6-chloroformamide-3′-deoxya-denosine] | 45.8 ± 1.01 | 87.01 ± 0.04 | 82.6 ± 1.48 | 
O=C(Nc1ncnc2c1ncn2[C@@H]1O[C@H](CO)C[C@H]1O)c1cccs1 [Compound 4a, 6-Thiophenecarboxamide-3′-deoxyadenosine] | 27.6 ± 0.52 | 68.8 ± 3.34 | 38.93 ± 0.06 | in vitro cytotoxicity against MCF-10A (MCF-10A cells): low toxicity; percentage of apoptotic cells (MCF7 cells [2]): 50.422 ± 1.862%; effect on MCF7 cell cycle (MCF7 cells [3]): cell cycle arrest at the G0/G1 phase; positive expression rate and cell membrane potential with increase in dose (MCF7 cells [4]): decrease gradually; expression of Bcl-2 protein (Bcl-2): down-regulate; expression of Caspase-9 (Caspase-9): up-regulate; expression of Caspase-3 (Caspase-3): up-regulate; expression of Bax (Bax): up-regulate; expression of p53 (p53): up-regulate
O=C(Nc1ncnc2c1ncn2[C@@H]1O[C@H](CO)C[C@H]1O)c1ccco1 [Compound 4b, 6-Furancarboxamide-3′-deoxyadenosine] | 40.9 ± 1.67 | 33.37 ± 0.08 | 86.3 ± 2.35 | 
O=C(Nc1ncnc2c1ncn2[C@@H]1O[C@H](CO)C[C@H]1O)c1ccc(Cl)nc1 [Compound 4c, 6-6-Chloronicotinamide-3′-deoxyadenosine] | 45.3 ± 0.58 | 48.4 ± 0.79 | 80.4 ± 1.05 | 
Nc1ncnc2c1ncn2[C@@H]1O[C@H](CO)C[C@H]1O [Cordycepin] | 46.9 ± 1.62 | 51.8 ± 1.36 | 51.3 ± 3.77 | IC50 (MCF7): 135 µM; IC50 (MDA-MB-453 cells): 70 µM
